System: 282377-053-R-J1-PDC complex spheroid viability
Assay: Anticancer human tumor 282377-053-R-J1-PDC patient-derived colon adenocarcinoma cell line growth inhibition [POLQ]
Settings: for IC50: curve of first compound; for viability, T/C: stronger effect = lower value
Summary of the method: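 Growth inhibition in 3D: complex spheroids (tumor PDC, HUVEC, MSC) treated with POLQ inhibitor combinations; where Cmax unknown, highest tested concentration 10 microM, except SN-38 at 1 microM.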

[1] = second compound 0.0316 µM, first compound 0.0316 µM
[2] = second compound 0.0316 µM, first compound 0.1 µM
[3] = second compound 0.0316 µM, first compound 0.316 µM
[4] = second compound 0.0316 µM, first compound 1 µM
[5] = second compound 0.0316 µM, first compound 3.16 µM
[6] = second compound 0.0316 µM, first compound 10 µM
[7] = second compound 0.1 µM, first compound 0.0316 µM
[8] = second compound 0.1 µM, first compound 0.1 µM
[9] = second compound 0.1 µM, first compound 0.316 µM
[10] = second compound 0.1 µM, first compound 1 µM
[11] = second compound 0.1 µM, first compound 3.16 µM
[12] = second compound 0.1 µM, first compound 10 µM
[13] = second compound 0.316 µM, first compound 0.0316 µM
[14] = second compound 0.316 µM, first compound 0.1 µM
[15] = second compound 0.316 µM, first compound 0.316 µM
[16] = second compound 0.316 µM, first compound 1 µM
[17] = second compound 0.316 µM, first compound 3.16 µM
[18] = second compound 0.316 µM, first compound 10 µM
[19] = second compound 1 µM, first compound 0.0316 µM
[20] = second compound 1 µM, first compound 0.1 µM
[21] = second compound 1 µM, first compound 0.316 µM
[22] = second compound 1 µM, first compound 1 µM
[23] = second compound 1 µM, first compound 3.16 µM
[24] = second compound 1 µM, first compound 10 µM
[25] = second compound 3.16 µM, first compound 0.0316 µM
[26] = second compound 3.16 µM, first compound 0.1 µM
[27] = second compound 3.16 µM, first compound 0.316 µM
[28] = second compound 3.16 µM, first compound 1 µM
[29] = second compound 3.16 µM, first compound 3.16 µM
[30] = second compound 3.16 µM, first compound 10 µM
[31] = second compound 10 µM, first compound 0.0316 µM
[32] = second compound 10 µM, first compound 0.1 µM
[33] = second compound 10 µM, first compound 0.316 µM
[34] = second compound 10 µM, first compound 1 µM
[35] = second compound 10 µM, first compound 3.16 µM
[36] = second compound 10 µM, first compound 10 µM
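Further: spheroids exposed to compounds for seven days.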
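Wherever viability, T/C is given: 100% = DMSO vehicle control viability.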

## CNCc1ccc(-c2[nH]c3cc(F)cc4c3c2CCNC4=O)cc1 + COC1C(OC(N)=O)C(O)C(Oc2ccc3c(O)c(NC(=O)c4ccc(O)c(CC=C(C)C)c4)c(=O)oc3c2C)OC1(C)C
Second compound 0.0316 µM
  IC50: > 10 µM
Second compound 0.1 µM
  IC50: > 10 µM
Second compound 0.316 µM
  IC50: > 10 µM
Second compound 1 µM
  IC50: > 10 µM
Second compound 3.16 µM
  IC50: > 10 µM
Second compound 10 µM
  IC50: > 10 µM
[1]
  viability, T/C: 115%
[2]
  viability, T/C: 118%
[3]
  viability, T/C: 106%
[4]
  viability, T/C: 110%
[5]
  viability, T/C: 130%
[6]
  viability, T/C: 159%
[7]
  viability, T/C: 113%
[8]
  viability, T/C: 106%
[9]
  viability, T/C: 104%
[10]
  viability, T/C: 108%
[11]
  viability, T/C: 122%
[12]
  viability, T/C: 152%
[13]
  viability, T/C: 104%
[14]
  viability, T/C: 98.4%
[15]
  viability, T/C: 96.6%
[16]
  viability, T/C: 100%
[17]
  viability, T/C: 133%
[18]
  viability, T/C: 157%
[19]
  viability, T/C: 102%
[20]
  viability, T/C: 99%
[21]
  viability, T/C: 121%
[22]
  viability, T/C: 103%
[23]
  viability, T/C: 128%
[24]
  viability, T/C: 160%
[25]
  viability, T/C: 98.7%
[26]
  viability, T/C: 111%
[27]
  viability, T/C: 97.6%
[28]
  viability, T/C: 87.4%
[29]
  viability, T/C: 121%
[30]
  viability, T/C: 167%
[31]
  viability, T/C: 107%
[32]
  viability, T/C: 122%
[33]
  viability, T/C: 110%
[34]
  viability, T/C: 106%
[35]
  viability, T/C: 127%
[36]
  viability, T/C: 162%

## C#Cc1c(F)ccc2cc(O)cc(-c3ncc4c(N5CC6CCC(C5)N6)nc(OCC56CCCN5CC(F)C6)nc4c3F)c12 (stereo not drawn) + COC1C(OC(N)=O)C(O)C(Oc2ccc3c(O)c(NC(=O)c4ccc(O)c(CC=C(C)C)c4)c(=O)oc3c2C)OC1(C)C
Second compound 0.0316 µM
  IC50: > 10 µM
Second compound 0.1 µM
  IC50: > 10 µM
Second compound 0.316 µM
  IC50: > 10 µM
Second compound 1 µM
  IC50: > 10 µM
Second compound 3.16 µM
  IC50: > 10 µM
Second compound 10 µM
  IC50: > 10 µM
[1]
  viability, T/C: 111%
[2]
  viability, T/C: 115%
[3]
  viability, T/C: 108%
[4]
  viability, T/C: 117%
[5]
  viability, T/C: 88.8%
[6]
  viability, T/C: 96.9%
[7]
  viability, T/C: 94.4%
[8]
  viability, T/C: 113%
[9]
  viability, T/C: 107%
[10]
  viability, T/C: 90%
[11]
  viability, T/C: 96.9%
[12]
  viability, T/C: 88.1%
[13]
  viability, T/C: 94%
[14]
  viability, T/C: 120%
[15]
  viability, T/C: 93.7%
[16]
  viability, T/C: 91.5%
[17]
  viability, T/C: 92.6%
[18]
  viability, T/C: 85.6%
[19]
  viability, T/C: 104%
[20]
  viability, T/C: 96.5%
[21]
  viability, T/C: 98.9%
[22]
  viability, T/C: 82.5%
[23]
  viability, T/C: 112%
[24]
  viability, T/C: 87.8%
[25]
  viability, T/C: 104%
[26]
  viability, T/C: 88.3%
[27]
  viability, T/C: 95.4%
[28]
  viability, T/C: 82.3%
[29]
  viability, T/C: 92.1%
[30]
  viability, T/C: 87.7%
[31]
  viability, T/C: 100%
[32]
  viability, T/C: 91.2%
[33]
  viability, T/C: 102%
[34]
  viability, T/C: 93.7%
[35]
  viability, T/C: 74.8%
[36]
  viability, T/C: 86.8%

## CNCc1ccc(-c2[nH]c3cc(F)cc4c3c2CCNC4=O)cc1 + Nc1ccc(C#CCN(C(=O)Cc2ncc(C(F)(F)F)cc2C(F)(F)F)c2ccc(F)cc2)nn1
Second compound 0.0316 µM
  IC50: > 10 µM
Second compound 0.1 µM
  IC50: > 10 µM
Second compound 0.316 µM
  IC50: > 10 µM
Second compound 1 µM
  IC50: > 10 µM
Second compound 3.16 µM
  IC50: > 10 µM
Second compound 10 µM
  IC50: > 10 µM
[1]
  viability, T/C: 105%
[2]
  viability, T/C: 88.6%
[3]
  viability, T/C: 90%
[4]
  viability, T/C: 104%
[5]
  viability, T/C: 108%
[6]
  viability, T/C: 112%
[7]
  viability, T/C: 119%
[8]
  viability, T/C: 117%
[9]
  viability, T/C: 104%
[10]
  viability, T/C: 94.6%
[11]
  viability, T/C: 97.4%
[12]
  viability, T/C: 112%
[13]
  viability, T/C: 95.7%
[14]
  viability, T/C: 86.2%
[15]
  viability, T/C: 89.8%
[16]
  viability, T/C: 108%
[17]
  viability, T/C: 92%
[18]
  viability, T/C: 108%
[19]
  viability, T/C: 95%
[20]
  viability, T/C: 103%
[21]
  viability, T/C: 100%
[22]
  viability, T/C: 90.8%
[23]
  viability, T/C: 115%
[24]
  viability, T/C: 101%
[25]
  viability, T/C: 109%
[26]
  viability, T/C: 98.3%
[27]
  viability, T/C: 127%
[28]
  viability, T/C: 92.4%
[29]
  viability, T/C: 118%
[30]
  viability, T/C: 139%
[31]
  viability, T/C: 113%
[32]
  viability, T/C: 105%
[33]
  viability, T/C: 126%
[34]
  viability, T/C: 121%
[35]
  viability, T/C: 113%
[36]
  viability, T/C: 145%

## COc1cc(C2c3cc4c(cc3C(OC3OC5COC(C)OC5C(O)C3O)C3COC(=O)C23)OCO4)cc(OC)c1O (stereo not drawn) + Cc1cccc(N(C)C(=O)C2C(O)CCN2c2nc(C)cc(C(F)(F)F)c2C#N)c1
Second compound 0.0316 µM
  IC50: > 10 µM
Second compound 0.1 µM
  IC50: > 10 µM
Second compound 0.316 µM
  IC50: > 10 µM
Second compound 1 µM
  IC50: > 10 µM
Second compound 3.16 µM
  IC50: > 10 µM
Second compound 10 µM
  IC50: 7.51 µM
[1]
  viability, T/C: 139%
[2]
  viability, T/C: 104%
[3]
  viability, T/C: 128%
[4]
  viability, T/C: 109%
[5]
  viability, T/C: 84.8%
[6]
  viability, T/C: 61.4%
[7]
  viability, T/C: 112%
[8]
  viability, T/C: 105%
[9]
  viability, T/C: 123%
[10]
  viability, T/C: 88.7%
[11]
  viability, T/C: 89.1%
[12]
  viability, T/C: 59.1%
[13]
  viability, T/C: 108%
[14]
  viability, T/C: 98.2%
[15]
  viability, T/C: 119%
[16]
  viability, T/C: 116%
[17]
  viability, T/C: 91%
[18]
  viability, T/C: 64.2%
[19]
  viability, T/C: 107%
[20]
  viability, T/C: 99%
[21]
  viability, T/C: 123%
[22]
  viability, T/C: 98.1%
[23]
  viability, T/C: 78.7%
[24]
  viability, T/C: 56.9%
[25]
  viability, T/C: 103%
[26]
  viability, T/C: 102%
[27]
  viability, T/C: 96.2%
[28]
  viability, T/C: 90.1%
[29]
  viability, T/C: 86.2%
[30]
  viability, T/C: 53.9%
[31]
  viability, T/C: 103%
[32]
  viability, T/C: 100%
[33]
  viability, T/C: 96.5%
[34]
  viability, T/C: 78.2%
[35]
  viability, T/C: 62.1%
[36]
  viability, T/C: 46%

Reference: PubChem BioAssay AID1963852 (Molecular Pharmacology Branch, DTP, NCI, 2024)
